# Results as given in patent US20030232994A1, “Bicyclic thiophene derivatives and combinatorial libraries thereof” (priority 2001, published 2003).
# System: Streptococcus pyogenes (ATCC# 97-03 14289)
# Test: Anti-microbial screen (growth inhibition, OD 570 nm)
# Type: cell-based
# Conditions: growth in Todd Hewitt Broth, plates read at 570 nm at 0 time and 4 hours, color corrected
# Protocol: Streptococcus pyogenes (ATCC# 97-03 14289) was grown in Todd Hewitt Broth (THB) (Difco Laboratories #0492-17-6) overnight until reaching an optical density of (OD=0.636 @ 570 nm) by reading 0.1 ml in a 96 well microtiter plate in a Molecular Devices Thermomax. This preparation was kept frozen as stocks in 30% v/v glycerol in 1.5 ml aliquots at −70^mC. until use. Prior to experiments, […] aliquots were thawed and diluted into 50 ml 2×THB. 60 ul of this dilution was added to 92 wells of microtiter plate. To three wells THB (200 ul) was added to serve as a blank and a sterility control. Test compounds in DMSO and appropriate concentrations of DMSO were added to Growth/Solvent Controls at 0 time. Plates were read at 0 time at 570 nm in the Molecular Devices plate reader to obtain compounds correction factors for insoluble or colored compounds. Plates were read again at 4 hours.
# Percent inhibition is calculated with the following formulae: [drawing 4]
# Color correct=O.D. 0 hr−Blank 0 hr)−(Solvent Control 0 hr−Blank 0 hr)
# % Inhibition=100−O.D. test compound 4 hr−Blank 4 hr−color correct O.D. growth/solvent control 4 hr−Blank 4 hr
row,Structure (SMILES),% Inhibition [%]
1,CCCc1ccc(C(=O)Nc2sc3c(c2C(=O)O)CCN(C(=O)c2cccc(F)c2C)C3)cc1,99.63
2,Cc1noc(C)c1C(=O)N1CCc2c(sc(NC(=O)c3ccccc3)c2C(=O)O)C1,96.39
3,O=C(Nc1sc2c(c1C(=O)O)CCN(C(=O)c1ccco1)C2)c1ccccc1,96.39
4,CCOc1ncccc1C(=O)N1CCc2c(sc(NC(=O)c3ccccc3)c2C(=O)O)C1,95.92
5,CCCc1ccc(C(=O)Nc2sc3c(c2C(=O)O)CCN(C(=O)C2CCC2)C3)cc1,95.65
6,CSc1ccccc1C(=O)N1CCc2c(sc(NC(=O)CC(C)CC(C)(C)C)c2C(=O)O)C1 (centres unmarked),95.62
7,C/C=C/C(=O)N1CCc2c(sc(NC(=O)c3ccccc3)c2C(=O)O)C1,94.99
8,O=C(Nc1sc2c(c1C(=O)O)CCN(C(=O)c1cccc(Cl)c1)C2)c1ccccc1,94.99
9,CC(C)CC(=O)N1CCc2c(sc(NC(=O)c3ccc(Cl)cc3)c2C(=O)O)C1,84.68
10,O=C(Nc1sc2c(c1C(=O)O)CCN(C(=O)c1cccc3ccccc13)C2)c1ccccc1,83.81
11,CCCSc1ncccc1C(=O)N1CCc2c(sc(NC(=O)c3ccc(C(C)(C)C)cc3)c2C(=O)O)C1,83.49
12,Cc1ccc(C(=O)N2CCc3c(sc(NC(=O)c4ccc(C(C)(C)C)cc4)c3C(=O)O)C2)c(C)c1,82.83
13,O=C(Nc1sc2c(c1C(=O)O)CCN(C(=O)CCc1ccc(F)c(F)c1)C2)c1ccc(Cl)cc1,82.59
14,O=C(Nc1sc2c(c1C(=O)O)CCN(C(=O)c1ccc(F)c(F)c1)C2)c1ccc(Cl)cc1,82.59
15,O=C(Nc1sc2c(c1C(=O)O)CCN(C(=O)CC1CCCC1)C2)c1ccc(Cl)cc1,82.59
16,O=C(CCC1CCCC1)Nc1sc2c(c1C(=O)O)CCN(C(=O)c1cccc3ccccc13)C2,82.49
17,Cc1ccc(C(=O)N2CCc3c(sc(NC(=O)c4ccccc4)c3C(=O)O)C2)cn1,82.41
18,COc1cccc(C(=O)Nc2sc3c(c2C(=O)O)CCN(C(=O)c2cccc4ccccc24)C3)c1,82.32
19,CCC(C(=O)Nc1sc2c(c1C(=O)O)CCN(C(=O)/C=C/c1ccc(Cl)cc1)C2)c1ccccc1 (centres unmarked),82.18
20,CC(C)(C)c1ccc(C(=O)Nc2sc3c(c2C(=O)O)CCN(C(=O)c2ccsc2)C3)cc1,82.18
21,Cc1ccc(C(=O)N2CCc3c(sc(NC(=O)CC(C)CC(C)(C)C)c3C(=O)O)C2)c(C)c1 (centres unmarked),81.9
22,CC(CC(=O)Nc1sc2c(c1C(=O)O)CCN(C(=O)CC1CCCC1)C2)CC(C)(C)C (centres unmarked),81.9
23,COc1cc(Cl)ccc1C(=O)N1CCc2c(sc(NC(=O)c3ccccc3)c2C(=O)O)C1,81.48
24,CC(C)(C)c1ccc(C(=O)Nc2sc3c(c2C(=O)O)CCN(C(=O)c2ccccc2C(F)(F)F)C3)cc1,80.87
25,CCC(C(=O)Nc1sc2c(c1C(=O)O)CCN(C(=O)Cc1cc(C)ccc1C)C2)c1ccccc1 (centres unmarked),80.75
26,CCc1ccc(C(=O)Nc2sc3c(c2C(=O)O)CCN(C(=O)c2cc(OC)ccc2OC)C3)cc1,80.21

row,Structure (SMILES),% Inhibition [%]
1,Cc1ccccc1C(=O)N1CCc2c(sc(NC(=O)c3ccccc3)c2C(=O)O)C1,80.08
2,CCOc1ncccc1C(=O)N1CCc2c(sc(NC(=O)c3ccc(Cl)cc3)c2C(=O)O)C1,79.31
3,CC(C)(C)c1ccc(C(=O)Nc2sc3c(c2C(=O)O)CCN(C(=O)CC2CCCC2)C3)cc1,79.23
4,CSc1ccccc1C(=O)N1CCc2c(sc(NC(=O)c3ccccc3)c2C(=O)O)C1,79.15
5,CCCSc1ncccc1C(=O)N1CCc2c(sc(NC(=O)c3ccc(CCC)cc3)c2C(=O)O)C1,79.09
6,Cc1ccccc1C(=O)N1CCc2c(sc(NC(=O)c3ccc4ccccc4c3)c2C(=O)O)C1,78.88
7,Cc1c(F)cccc1C(=O)N1CCc2c(sc(NC(=O)c3ccc(Cl)cc3)c2C(=O)O)C1,78.42
8,O=C(Nc1sc2c(c1C(=O)O)CCN(C(=O)c1ccco1)C2)c1ccccc1Cl,78.12
9,CC(C)CC(=O)N1CCc2c(sc(NC(=O)c3ccc4ccccc4c3)c2C(=O)O)C1,77.94
10,CCc1ccc(C(=O)Nc2sc3c(c2C(=O)O)CCN(C(=O)c2ccccc2Cl)C3)cc1,77.92
11,COc1ccc(OC)c(C(=O)N2CCc3c(sc(NC(=O)c4ccc(C(C)(C)C)cc4)c3C(=O)O)C2)c1,77.92
12,COc1cccc(C(=O)N2CCc3c(sc(NC(=O)c4ccc(Cl)cc4)c3C(=O)O)C2)c1OC,77.82
13,O=C(Nc1sc2c(c1C(=O)O)CCN(C(=O)/C=C/c1ccccc1Cl)C2)c1c(F)cccc1F,77.66
14,Cc1c(F)cccc1C(=O)N1CCc2c(sc(NC(=O)CC(C)CC(C)(C)C)c2C(=O)O)C1 (centres unmarked),77.56
15,CC(C)C(=O)N1CCc2c(sc(NC(=O)c3ccc(C(C)(C)C)cc3)c2C(=O)O)C1,77.26
16,O=C(Nc1sc2c(c1C(=O)O)CCN(C(=O)c1cccc(Cl)c1)C2)c1c(F)cccc1F,77.03
17,O=C(Nc1sc2c(c1C(=O)O)CCN(C(=O)c1ccc(Cl)cc1)C2)c1ccc2ccccc2c1,76.7
18,CCCc1ccc(C(=O)Nc2sc3c(c2C(=O)O)CCN(C(=O)c2cccc(OC)c2OC)C3)cc1,76.44
19,COc1cccc2cc(C(=O)N3CCc4c(sc(NC(=O)c5ccccc5)c4C(=O)O)C3)oc12,76.35
20,CC(=O)Nc1ccc(C(=O)N2CCc3c(sc(NC(=O)c4ccccc4Cl)c3C(=O)O)C2)cc1,76.33
21,Cc1ccccc1C(=O)N1CCc2c(sc(NC(=O)CCC3CCCC3)c2C(=O)O)C1,76.07
22,CC(C)(C)c1ccc(C(=O)Nc2sc3c(c2C(=O)O)CCN(C(=O)c2ccc(F)c(F)c2)C3)cc1,75.95
23,COc1cccc(C(=O)Nc2sc3c(c2C(=O)O)CCN(C(=O)c2ccc(F)c(F)c2)C3)c1,75.77
24,CCc1ccc(C(=O)Nc2sc3c(c2C(=O)O)CCN(C(=O)c2ccc(Cl)cc2)C3)cc1,74.97
25,O=C(Nc1sc2c(c1C(=O)O)CCN(C(=O)CCc1ccc(F)c(F)c1)C2)c1ccccc1,74.96
26,CCCc1ccc(C(=O)Nc2sc3c(c2C(=O)O)CCN(C(=O)C(C)C)C3)cc1,74.78

row,Structure (SMILES),% Inhibition [%]
1,Cc1ccc(C(=O)N2CCc3c(sc(NC(=O)c4ccc(C(C)(C)C)cc4)c3C(=O)O)C2)cn1,74.64
2,COc1cccc(C(=O)Nc2sc3c(c2C(=O)O)CCN(C(=O)c2ccccc2C)C3)c1,74.32
3,COc1cccc(C(=O)Nc2sc3c(c2C(=O)O)CCN(C(=O)c2ccccc2C(F)(F)F)C3)c1,73.59
4,COc1cccc(C(=O)Nc2sc3c(c2C(=O)O)CCN(C(=O)c2cccc(F)c2C)C3)c1,73.59
5,COc1ccc(OC)c(C(=O)N2CCc3c(sc(NC(=O)c4ccccc4)c3C(=O)O)C2)c1,73.56
6,Cc1c(F)cccc1C(=O)N1CCc2c(sc(NC(=O)c3ccc4ccccc4c3)c2C(=O)O)C1,73.27
7,CC(C)(C)c1ccc(C(=O)Nc2sc3c(c2C(=O)O)CCN(C(=O)c2cccc4ccccc24)C3)cc1,73
8,CCC(C(=O)Nc1sc2c(c1C(=O)O)CCN(C(=O)c1ccc(Cl)cc1)C2)c1ccccc1 (centres unmarked),72.87
9,O=C(CCC1CCCC1)Nc1sc2c(c1C(=O)O)CCN(C(=O)c1ccccc1C(F)(F)F)C2,72.86
10,CC(=O)Nc1cccc(C(=O)N2CCc3c(sc(NC(=O)c4ccccc4Cl)c3C(=O)O)C2)c1,72.75
11,O=C(Nc1sc2c(c1C(=O)O)CCN(C(=O)c1ccc(Cl)cc1)C2)c1ccccc1Cl,72.75
12,O=C(Nc1sc2c(c1C(=O)O)CCN(C(=O)c1ccc(C(F)(F)F)cc1)C2)c1ccccc1,72.63
13,O=C(O)c1c(NC(=O)C2CCCCC2)sc2c1CCN(C(=O)c1cc3ccccc3s1)C2,72.52
14,O=C(Nc1sc2c(c1C(=O)O)CCN(C(=O)C1CCCCC1)C2)c1ccc(Cl)cc1,72.46
15,Cc1c(F)cccc1C(=O)N1CCc2c(sc(NC(=O)c3ccco3)c2C(=O)O)C1,72.33
16,CSc1ccccc1C(=O)N1CCc2c(sc(NC(=O)c3ccc(Cl)cc3)c2C(=O)O)C1,71.86
17,CC(=O)Nc1ccc(C(=O)N2CCc3c(sc(NC(=O)c4ccc(C(C)(C)C)cc4)c3C(=O)O)C2)cc1,71.69
18,COc1ccc(OC)c(C(=O)N2CCc3c(sc(NC(=O)c4ccc(Cl)cc4)c3C(=O)O)C2)c1,70.67
19,CC(C)(C)c1ccc(C(=O)Nc2sc3c(c2C(=O)O)CCN(C(=O)CCc2ccc(F)c(F)c2)C3)cc1,69.4
20,Cc1ccccc1C(=O)N1CCc2c(sc(NC(=O)C3CCCCC3)c2C(=O)O)C1,69.29
21,Cc1ccc(C(=O)N2CCc3c(sc(NC(=O)c4ccccc4Cl)c3C(=O)O)C2)cn1,69.18
22,COc1cccc(C(=O)N2CCc3c(sc(NC(=O)[C@]45C[C@H]6C[C@@H](C[C@H](C6)C4)C5)c3C(=O)O)C2)c1OC,68.91
23,CC(CC(=O)Nc1sc2c(c1C(=O)O)CCN(C(=O)c1cccc3ccccc13)C2)CC(C)(C)C (centres unmarked),68.89
24,Cc1ccsc1C(=O)N1CCc2c(sc(NC(=O)c3ccc(C(C)(C)C)cc3)c2C(=O)O)C1,68.74
25,O=C(Nc1sc2c(c1C(=O)O)CCN(C(=O)/C=C/c1ccc(Cl)cc1)C2)c1ccccc1Cl,68.58
